Measured values as given in ChEMBL document CHEMBL6127119 (J Med Chem, 2024).
≈ marks a conversion by molar mass, not a printed value.

What was measured:
Type in all cases: functional
Conditions in all cases: time 16-24 hrs
Pseudomonas aeruginosa = assay: Antibacterial activity against Pseudomonas aeruginosa PAO1 incubated for 16 to 24 hrs by CLSI based broth microdilution method
Enterococcus faecium [1] = assay: Antibacterial activity against vancomycin-resistant Enterococcus faecium harboring VanB phenotype incubated for 16 to 24 hrs by CLSI based broth microdilution method
Enterococcus faecium [2] = assay: Antibacterial activity against vancomycin-resistant Enterococcus faecium harboring VanM phenotype incubated for 16 to 24 hrs by CLSI based broth microdilution method
Escherichia coli = assay: Antibacterial activity against Escherichia coli AB1157 incubated for 16 to 24 hrs by CLSI based broth microdilution method
Staphylococcus aureus [3] = assay: Antibacterial activity against vancomycin-intermediate Staphylococcus aureus incubated for 16 to 24 hrs by CLSI based broth microdilution method
Enterococcus faecium [4] = assay: Antibacterial activity against vancomycin-resistant Enterococcus faecium harboring VanA phenotype incubated for 16 to 24 hrs by CLSI based broth microdilution method
Acinetobacter baumannii = assay: Antibacterial activity against Carbapenem-resistant Acinetobacter baumannii clinical isolate incubated for 16 to 24 hrs by CLSI based broth microdilution method
Staphylococcus aureus [5] = assay: Antibacterial activity against methicillin-susceptible Staphylococcus aureus incubated for 16 to 24 hrs by CLSI based broth microdilution method
Klebsiella pneumoniae = assay: Antibacterial activity against Klebsiella pneumoniae clinical isolate incubated for 16 to 24 hrs by CLSI based broth microdilution method

Compound | MIC (Pseudomonas aeruginosa) [µg/mL] | MIC (Enterococcus faecium [1]) [µg/mL] | MIC (Enterococcus faecium [2]) [µg/mL] | MIC (Escherichia coli) [µg/mL] | MIC (Staphylococcus aureus [3]) [µg/mL] | MIC (Enterococcus faecium [4]) [µg/mL] | MIC (Acinetobacter baumannii) [µg/mL] | MIC (Staphylococcus aureus [5]) [µg/mL] | MIC (Klebsiella pneumoniae) [µg/mL]
CC(C)C[C@@H](N)C(=O)N[C@H]1C(=O)N[C@@H](CC(N)=O)C(=O)N[C@H]2C(=O)N[C@H]3C(=O)N[C@H](C(=O)N[C@H](C(=O)NCc4ccc(-c5ccc(CN)cc5)cc4)c4cc(O)cc(O)c4-c4cc3ccc4O)[C@H](O)c3ccc(c(Cl)c3)Oc3cc2cc(c3O[C@@H]2O[C@H](CO)[C@@H](O)[C@H](O)[C@H]2O[C@H]2C[C@](C)(N)[C@H](O)[C@H](C)O2)Oc2ccc(cc2Cl)[C@H]1O | > 128 | 8 (≈ 4.91 µM) | 8 (≈ 4.91 µM) | 16 (≈ 9.82 µM) | 1 (≈ 0.614 µM) | 8 (≈ 4.91 µM) | 128 (≈ 78.6 µM) | ≤ 0.063 | > 128
CN[C@H](CC(C)C)C(=O)N[C@H]1C(=O)N[C@@H](CC(N)=O)C(=O)N[C@H]2C(=O)N[C@H]3C(=O)N[C@H](C(=O)N[C@H](C(=O)O)c4cc(O)c(CNCCCCCCCCN)c(O)c4-c4cc3ccc4O)[C@H](O)c3ccc(c(Cl)c3)Oc3cc2cc(c3O[C@@H]2O[C@H](CO)[C@@H](O)[C@H](O)[C@H]2O[C@H]2C[C@](C)(N)[C@H](O)[C@H](C)O2)Oc2ccc(cc2Cl)[C@H]1O | 128 (≈ 79.7 µM) | 32 (≈ 19.9 µM) | 128 (≈ 79.7 µM) | 128 (≈ 79.7 µM) | 8 (≈ 4.98 µM) | 128 (≈ 79.7 µM) | 128 (≈ 79.7 µM) | 4 (≈ 2.49 µM) | > 128
CC(C)C[C@@H](N)C(=O)N[C@H]1C(=O)N[C@@H](CC(N)=O)C(=O)N[C@H]2C(=O)N[C@H]3C(=O)N[C@H](C(=O)N[C@H](C(=O)NCCCCCCN)c4cc(O)cc(O)c4-c4cc3ccc4O)[C@H](O)c3ccc(c(Cl)c3)Oc3cc2cc(c3O[C@@H]2O[C@H](CO)[C@@H](O)[C@H](O)[C@H]2O[C@H]2C[C@](C)(N)[C@H](O)[C@H](C)O2)Oc2ccc(cc2Cl)[C@H]1O | 128 (≈ 83.5 µM) | 64 (≈ 41.7 µM) | 64 (≈ 41.7 µM) | 32 (≈ 20.9 µM) | 8 (≈ 5.22 µM) | 64 (≈ 41.7 µM) | > 128 | 2 (≈ 1.3 µM) | > 128
CC(C)C[C@@H](N)C(=O)N[C@H]1C(=O)N[C@@H](CC(N)=O)C(=O)N[C@H]2C(=O)N[C@H]3C(=O)N[C@H](C(=O)N[C@H](C(=O)NCCN)c4cc(O)cc(O)c4-c4cc3ccc4O)[C@H](O)c3ccc(c(Cl)c3)Oc3cc2cc(c3O[C@@H]2O[C@H](CO)[C@@H](O)[C@H](O)[C@H]2O[C@H]2C[C@](C)(N)[C@H](O)[C@H](C)O2)Oc2ccc(cc2Cl)[C@H]1O | > 128 | 128 (≈ 86.6 µM) | 128 (≈ 86.6 µM) | 32 (≈ 21.7 µM) | 4 (≈ 2.71 µM) | 128 (≈ 86.6 µM) | 128 (≈ 86.6 µM) | 2 (≈ 1.35 µM) | > 128
CC(C)C[C@@H](N)C(=O)N[C@H]1C(=O)N[C@@H](CC(N)=O)C(=O)N[C@H]2C(=O)N[C@H]3C(=O)N[C@H](C(=O)N[C@H](C(=O)NCCNC(=N)N)c4cc(O)cc(O)c4-c4cc3ccc4O)[C@H](O)c3ccc(c(Cl)c3)Oc3cc2cc(c3O[C@@H]2O[C@H](CO)[C@@H](O)[C@H](O)[C@H]2O[C@H]2C[C@](C)(N)[C@H](O)[C@H](C)O2)Oc2ccc(cc2Cl)[C@H]1O | > 128 | 128 (≈ 84.2 µM) | 32 (≈ 21.1 µM) | 32 (≈ 21.1 µM) | 2 (≈ 1.32 µM) | 32 (≈ 21.1 µM) | 128 (≈ 84.2 µM) | 0.5 (≈ 0.329 µM) | > 128
CC(C)C[C@@H](N)C(=O)N[C@H]1C(=O)N[C@@H](CC(N)=O)C(=O)N[C@H]2C(=O)N[C@H]3C(=O)N[C@H](C(=O)N[C@H](C(=O)NCCCCNC(=N)N)c4cc(O)cc(O)c4-c4cc3ccc4O)[C@H](O)c3ccc(c(Cl)c3)Oc3cc2cc(c3O[C@@H]2O[C@H](CO)[C@@H](O)[C@H](O)[C@H]2O[C@H]2C[C@](C)(N)[C@H](O)[C@H](C)O2)Oc2ccc(cc2Cl)[C@H]1O | 128 (≈ 82.7 µM) | 32 (≈ 20.7 µM) | 64 (≈ 41.4 µM) | 8 (≈ 5.17 µM) | 2 (≈ 1.29 µM) | 32 (≈ 20.7 µM) | 128 (≈ 82.7 µM) | 1 (≈ 0.646 µM) | > 128
CC(C)C[C@@H](N)C(=O)N[C@H]1C(=O)N[C@@H](CC(N)=O)C(=O)N[C@H]2C(=O)N[C@H]3C(=O)N[C@H](C(=O)N[C@H](C(=O)NCc4ccc(-c5ccc(CCN)cc5)cc4)c4cc(O)cc(O)c4-c4cc3ccc4O)[C@H](O)c3ccc(c(Cl)c3)Oc3cc2cc(c3O[C@@H]2O[C@H](CO)[C@@H](O)[C@H](O)[C@H]2O[C@H]2C[C@](C)(N)[C@H](O)[C@H](C)O2)Oc2ccc(cc2Cl)[C@H]1O | > 128 | 8 (≈ 4.87 µM) | 16 (≈ 9.74 µM) | 16 (≈ 9.74 µM) | 1 (≈ 0.608 µM) | 4 (≈ 2.43 µM) | > 128 | 0.25 (≈ 0.152 µM) | > 128
CC(C)C[C@@H](N)C(=O)N[C@H]1C(=O)N[C@@H](CC(N)=O)C(=O)N[C@H]2C(=O)N[C@H]3C(=O)N[C@H](C(=O)N[C@H](C(=O)NCCNC(=O)[C@@H](N)CCCNC(=N)N)c4cc(O)cc(O)c4-c4cc3ccc4O)[C@H](O)c3ccc(c(Cl)c3)Oc3cc2cc(c3O[C@@H]2O[C@H](CO)[C@@H](O)[C@H](O)[C@H]2O[C@H]2C[C@](C)(N)[C@H](O)[C@H](C)O2)Oc2ccc(cc2Cl)[C@H]1O | 128 (≈ 78.4 µM) | 16 (≈ 9.79 µM) | 64 (≈ 39.2 µM) | 32 (≈ 19.6 µM) | 2 (≈ 1.22 µM) | 16 (≈ 9.79 µM) | 64 (≈ 39.2 µM) | 1 (≈ 0.612 µM) | > 128
CC(C)C[C@@H](N)C(=O)N[C@H]1C(=O)N[C@@H](CC(N)=O)C(=O)N[C@H]2C(=O)N[C@H]3C(=O)N[C@H](C(=O)N[C@H](C(=O)N[C@H](CCCNC(=N)N)C(N)=O)c4cc(O)cc(O)c4-c4cc3ccc4O)[C@H](O)c3ccc(c(Cl)c3)Oc3cc2cc(c3O[C@@H]2O[C@H](CO)[C@@H](O)[C@H](O)[C@H]2O[C@H]2C[C@](C)(N)[C@H](O)[C@H](C)O2)Oc2ccc(cc2Cl)[C@H]1O | 128 (≈ 80.5 µM) | 32 (≈ 20.1 µM) | 64 (≈ 40.2 µM) | 16 (≈ 10.1 µM) | 16 (≈ 10.1 µM) | 32 (≈ 20.1 µM) | 64 (≈ 40.2 µM) | 0.5 (≈ 0.314 µM) | > 128
CC(C)C[C@@H](N)C(=O)N[C@H]1C(=O)N[C@@H](CC(N)=O)C(=O)N[C@H]2C(=O)N[C@H]3C(=O)N[C@H](C(=O)N[C@H](C(=O)O)c4cc(O)c(CNCCCCCCCCN)c(O)c4-c4cc3ccc4O)[C@H](O)c3ccc(c(Cl)c3)Oc3cc2cc(c3O[C@@H]2O[C@H](CO)[C@@H](O)[C@H](O)[C@H]2O[C@H]2C[C@](C)(N)[C@H](O)[C@H](C)O2)Oc2ccc(cc2Cl)[C@H]1O | 128 (≈ 80.4 µM) | 64 (≈ 40.2 µM) | 128 (≈ 80.4 µM) | 128 (≈ 80.4 µM) | 4 (≈ 2.51 µM) | 128 (≈ 80.4 µM) | 128 (≈ 80.4 µM) | 4 (≈ 2.51 µM) | > 128
Cc1ccc(-c2ccc(CNC(=O)[C@H]3NC(=O)[C@H]4NC(=O)[C@H](NC(=O)[C@@H]5NC(=O)[C@H](CC(N)=O)NC(=O)[C@H](NC(=O)[C@H](N)CC(C)C)[C@H](O)c6ccc(c(Cl)c6)Oc6cc5cc(c6O[C@@H]5O[C@H](CO)[C@@H](O)[C@H](O)[C@H]5O[C@H]5C[C@](C)(N)[C@H](O)[C@H](C)O5)Oc5ccc(cc5Cl)[C@H]4O)c4ccc(O)c(c4)-c4c(O)cc(O)cc43)cc2)cc1 | > 128 | 2 (≈ 1.24 µM) | 8 (≈ 4.96 µM) | 128 (≈ 79.3 µM) | 0.5 (≈ 0.31 µM) | 8 (≈ 4.96 µM) | > 128 | 0.125 (≈ 0.0774 µM) | > 128
CC(C)C[C@@H](N)C(=O)N[C@H]1C(=O)N[C@@H](CC(N)=O)C(=O)N[C@H]2C(=O)N[C@H]3C(=O)N[C@H](C(=O)N[C@H](C(=O)NCCOCCOCCNC(=N)N)c4cc(O)cc(O)c4-c4cc3ccc4O)[C@H](O)c3ccc(c(Cl)c3)Oc3cc2cc(c3O[C@@H]2O[C@H](CO)[C@@H](O)[C@H](O)[C@H]2O[C@H]2C[C@](C)(N)[C@H](O)[C@H](C)O2)Oc2ccc(cc2Cl)[C@H]1O | > 128 | 64 (≈ 39.8 µM) | 64 (≈ 39.8 µM) | 16 (≈ 9.95 µM) | 4 (≈ 2.49 µM) | 32 (≈ 19.9 µM) | > 128 | 1 (≈ 0.622 µM) | > 128
CC(=O)NC[C@H]1CN(c2ccc(N3CCOCC3)c(F)c2)C(=O)O1 [LINEZOLID] | > 128 | 2 (≈ 5.93 µM) | 2 (≈ 5.93 µM) | 128 (≈ 379 µM) |  | 1 (≈ 2.96 µM) | 128 (≈ 379 µM) |  | > 128
